According to PMC8179358, “An explicitly designed paratope of amyloid-β prevents neuronal apoptosis in vitro and hippocampal damage in rat brain” (Chemical Science, 2020):

What was measured:
[1] = Carboxyfluorescein dye leakage from LUVs, Aβ40; type: biochemical
Method: Smaller Aβ oligomers or protofibrils are more toxic than mature fibrils in AD progression due to their ability to disrupt membranes via pore formation.[37,38] […] To evaluate this, we performed a membrane leakage assay on carboxyfluorescein-loaded large unilamellar vesicles (LUVs).[38] The time required for Aβ40 oligomer and mature fibril formation is 12 h and 72 h, respectively (inferred from ThT assay, black curve, Fig. 2a), which directed us to set up the LUV leakage assay. […] The fluorescence intensity of complete dye release from LUVs by Triton X-100 served as a positive control (100% leakage), and untreated dye-loaded LUVs assisted as a negative control. […]
e. Time-resolved photoluminescence (TRPL) […]
μM. Then, 600 μL of peptide sample was placed in a 1 mL fluorescence cuvette and measure the excited state lifetime on Eddinburg FSP920 Instrument. f. […]
Prior to the analysis, samples were filtered through 0.45 µm PVDF membrane. […] For each sample, the analyses were recorded three times with 11 sub-runs using the multimodal mode. The Z-average diameter was calculated from the correlation function using Malvern technology software. g. […]
h. Carboxyfluorescein dye loaded Large Unilamellar Vesicles (LUVs) Leakage Study For leakage study, peptide and lipids were taken in 1:20 molar ratios, and the dye release was monitored by fluorescence emission. […]

SH-SY5Y cells = assay: Hoechst 33258 staining of apoptotic cells; type: cell-based, human; details: Aβ40 10 μM, 24 h
Description: Condensed or fragmented nuclear bodies characterize the distinctive nature of apoptotic cells. […] Dyshomeostasis of Ca^2+ is also responsible for the increased production of Aβ peptides, by which a degenerative feed-forward cycle is activated, resulting in accelerated apoptosis, synaptic dysfunction, and memory impairment.[49]

Aβ40: commercially available Aβ40 peptide
dye leakage from LUVs ([1]; Aβ40 oligomers (12 h aged), until 100 min, untreated LUVs ∼9%, Triton X-100 = 100%): ~40%
dye leakage from LUVs ([1]; mature Aβ40 fibrils (72 h), 100 min, peptide:lipid 1:20): ~15%
apoptotic cells, Aβ40 alone (SH-SY5Y cells): A significant number of apoptotic cells were observed
